Patent US20090054392A1, “NAPHTHYLPYRIMIDINE, NAPHTHYLPYRAZINE AND NAPHTHYLPYRIDAZINE ANALOGS AND THEIR USE AS AGONISTS OF THE WNT-BETA-CATENIN CELLULAR MESSAGING SYSTEM” (Wyeth, priority 2007, published 2009)

Test system: Dkk1-LRP5-TCF-Luciferase
Assay: Functional Dkk1-LRP5-TCF-Luciferase Assay in U2OS Cells
Conditions: for fold induction at 2 µM / fold induction at 20 µM / EC50: Homo sapiens, U2OS; for fold induction at 2 µM: read-out: B = TCF ACTIVITY/DMSO CONTROL Fold induction @ 2.0 uM, 2.0 uM compound; for fold induction at 20 µM: read-out: C = TCF ACTIVITY/DMSO CONTROL Fold induction @ 20.0 uM, 20.0 uM compound; for A = MAX FOLD Induction/DMSO CONTROL: maximum fold induction over DMSO control

| Structure (SMILES) | fold induction at 2 µM | fold induction at 20 µM | EC50 | A = MAX FOLD Induction/DMSO CONTROL | C = TCF ACTIVITY/DMSO CONTROL Fold induction @ 20.0 uM (20.0 uM compound, 20 µM) |
| --- | --- | --- | --- | --- | --- |
| OC[C@@H]1CCCN1c1nccc(-c2ccc3ccccc3c2)n1 [{(2S)-1-[4-(2-naphthyl)pyrimidin-2-yl]pyrrolidin-2-yl}methanol] | 2.05 | 2.02 |  |  |  |
| CS(=O)(=O)N[C@H]1CCN(c2nccc(-c3ccc4ccccc4c3)n2)C1 [N-{(3S)-1-[4-(2-naphthyl)pyrimidin-2-yl]pyrrolidin-3-yl}methanesulfonamide] | 0.68 | 1.56 | 13800 nM | 1.420 fold |  |
| O=C(NCC1CCN(c2nccc(-c3ccc4ccccc4c3)n2)CC1)N1CCCC1 [N-({1-[4-(2-naphthyl)pyrimidin-2-yl]piperidin-4-yl}methyl)pyrrolidine-1-carboxamide] | 0.91 | 1.13 |  |  |  |
| C[C@@H](N)C1CCN(c2nccc(-c3ccc4ccccc4c3)n2)CC1 [(1R)-1-{1-[4-(2-naphthyl)pyrimidin-2-yl]piperidin-4-yl}ethanamine] |  |  | 870 nM | 2.280 fold |  |
| c1ccc2cc(-c3ccnc(N4CC[C@@H]5CNC[C@@H]5C4)n3)ccc2c1 [(3aR,7aS)-5-[4-(2-naphthyl)pyrimidin-2-yl]octahydro-1H-pyrrolo[3,4-c]pyridine] | 1.8 |  |  |  |  |
| O=C(c1ccccc1)N1CC(CNc2nccc(-c3ccc4ccccc4c3)n2)C1 [N-[(1-benzoylazetidin-3-yl)methyl]-4-(2-naphthyl)pyrimidin-2-amine] | 1.5 |  |  |  |  |
| c1ccc2cc(-c3ccnc(NC4CCNCC4)n3)ccc2c1 [4-(2-naphthyl)-N-piperidin-4-ylpyrimidin-2-amine] | 1.47 | 1.75 | 4120 nM | 3.723 fold |  |
| CN(C)CCN(C)[C@H]1CCN(c2nccc(-c3ccc4ccccc4c3)n2)C1 [N,N,N′-trimethyl-N′-{(3S)-1-[4-(2-naphthyl)pyrimidin-2-yl]pyrrolidin-3-yl}ethane-1,2-diamine] | 1.2 |  |  |  |  |
| COc1ccc(-c2ccc3cc(-c4ccnc(N5CCC(CN)CC5)n4)ccc3c2)cc1 [1-(1-{4-[6-(4-methoxyphenyl)-2-naphthyl]pyrimidin-2-yl}piperidin-4-yl)methanamine] |  | 1.9 |  |  |  |
| O[C@H]1CCCN(CC2CCN(c3nccc(-c4ccc5ccccc5c4)n3)C2)C1 (stereo partly drawn) [(3S)-1-({1-[4-(2-naphthyl)pyrimidin-2-yl]pyrrolidin-3-yl}methyl)piperidin-3-ol] | 4.34 |  | 1010 nM | 6.950 fold |  |
| CNC(=O)[C@H]1CCCN1c1nccc(-c2ccc3ccccc3c2)n1 [N-methyl-1-[4-(2-naphthyl)pyrimidin-2-yl]-D-prolinamide] | 1.13 | 1.32 |  |  |  |
| CO[C@H]1CCN(c2nccc(-c3ccc4ccccc4c3)n2)C1 [2-[(3S)-3-methoxypyrrolidin-1-yl]-4-(2-naphthyl)pyrimidine] | 1.48 | 2.27 | 2580 nM | 1.755 fold |  |
| CCC(=O)N1CCCN(c2nccc(-c3ccc4ccccc4c3)n2)CC1 [1-[4-(2-naphthyl)pyrimidin-2-yl]-4-propionyl-1,4-diazepane] |  | 2.23 | 28500 nM | 2.260 fold |  |
| CCN(CCO)CC1CCN(c2nccc(-c3ccc4ccccc4c3)n2)C1 (stereo not shown) [2-[ethyl({1-[4-(2-naphthyl)pyrimidin-2-yl]pyrrolidin-3-yl}methyl)amino]ethanol] | 2.8 | 0.01 | 2260 nM | 3.635 fold |  |
| O[C@H]1CCN([C@H]2CCN(c3nccc(-c4ccc5ccccc5c4)n3)C2)C1 [(3S,3′S)-1′-[4-(2-naphthyl)pyrimidin-2-yl]-1,3′-bipyrrolidin-3-ol] | 2.1 |  |  |  |  |
| O=C1CCCCN1CC1CCN(c2nccc(-c3ccc4ccccc4c3)n2)CC1 [1-({1-[4-(2-naphthyl)pyrimidin-2-yl]piperidin-4-yl}methyl)piperidin-2-one] | 1.55 | 0.73 |  |  |  |
| N#Cc1ccc(C(=O)NC2CCCC(Nc3nccc(-c4ccc5ccccc5c4)n3)C2)cc1 (stereo not shown) [4-cyano-N-(3-{[4-(2-naphthyl)pyrimidin-2-yl]amino}cyclohexyl)benzamide] | 1.15 | 0.24 |  |  |  |
| CC(N)C1CCN(c2nccc(-c3ccc4ccccc4c3)n2)CC1 (stereo not shown) [1-{1-[4-(2-naphthyl)pyrimidin-2-yl]piperidin-4-yl}ethanamine] | 2.33 | 0.006 | 1090 nM | 2.891 fold |  |
| CC(C)(C)OC(=O)N[C@@H](CO)C1CCN(c2nccc(-c3ccc4ccccc4c3)n2)CC1 [tert-butyl ((1R)-2-hydroxy-1-{1-[4-(2-naphthyl)pyrimidin-2-yl]piperidin-4-yl}ethyl)carbamate] | 1.13 | 0.35 |  |  |  |
| CC(C)(C)OC(=O)N[C@H]1CCN(c2nccc(-c3ccc4ccccc4c3)n2)C1 [tert-butyl {(3S)-1-[4-(2-naphthyl)pyrimidin-2-yl]pyrrolidin-3-yl}carbamate] | 1.51 |  |  |  |  |
| Cc1ccc(S(=O)(=O)N2CCC(N(C)c3nccc(-c4ccc5ccccc5c4)n3)CC2)cc1 [N-methyl-N-{1-[(4-methylphenyl)sulfonyl]piperidin-4-yl}-4-(2-naphthyl)pyrimidin-2-amine] | 1.65 |  |  |  |  |
| CN(c1nccc(-c2ccc3ccccc3c2)n1)C1CCN(C(=O)N2CCCC2)CC1 [N-methyl-4-(2-naphthyl)-N-[1-(pyrrolidin-1-ylcarbonyl)piperidin-4-yl]pyrimidin-2-amine] | 1.81 |  |  |  |  |
| C=Cc1ccc2cc(-c3ccnc(N4CCC(CN)CC4)n3)ccc2c1 [1-{1-[4-(6-vinyl-2-naphthyl)pyrimidin-2-yl]piperidin-4-yl}methanamine] | 1.21 |  |  |  |  |
| Cc1ccc(S(=O)(=O)NC2CCCN(c3nccc(-c4ccc5ccccc5c4)n3)CC2)cc1 (stereo not shown) [4-methyl-N-{1-[4-(2-naphthyl)pyrimidin-2-yl]azepan-4-yl}benzenesulfonamide] | 1.49 | 2.26 |  | 0.780 fold |  |
| CC(=O)NCC1CCN(c2nccc(-c3ccc4ccccc4c3)n2)CC1 [N-({1-[4-(2-naphthyl)pyrimidin-2-yl]piperidin-4-yl}methyl)acetamide] | 1.63 | 2.71 | 1900 nM | 2.273 fold | 2.500 fold |
| COc1ccccc1-c1ccc2cc(-c3ccnc(N4CCC(CN)CC4)n3)ccc2c1 [1-(1-{4-[6-(2-methoxyphenyl)-2-naphthyl]pyrimidin-2-yl}piperidin-4-yl)methanamine] | 1.88 |  |  |  |  |
| c1ccc2cc(-c3ccnc(N4CCC5(CCNCC5)C4)n3)ccc2c1 [2-[4-(2-naphthyl)pyrimidin-2-yl]-2,8-diazaspiro[4.5]decane] | 1.7 |  |  |  |  |
| CC(C)(O)[C@H](N)C1CCN(c2nccc(-c3ccc4ccccc4c3)n2)CC1 [(1R)-1-amino-2-methyl-1-{1-[4-(2-naphthyl)pyrimidin-2-yl]piperidin-4-yl}propan-2-ol] | 1.78 |  |  |  |  |
| CN(C)C(=O)N1CC[C@@H](Nc2nccc(-c3ccc4ccccc4c3)n2)C1 [(3R)—N,N-dimethyl-3-{[4-(2-naphthyl)pyrimidin-2-yl]amino}pyrrolidine-1-carboxamide] |  | 1.33 |  |  |  |
